Laboratory results: patent publication US6361764B1, “Insoluble s-triazine derivatives and their use as UV filters” (Societe L'Oreal S.A., priority 1996, dated 2002)

Legend:
[1] = solid UV absorption spectrum of a film of the screened compound dispersed in white petroleum jelly; assay type: physicochemical; details: 5 g screened compound per 100 g petroleum jelly "Codex 236", film 10 Am thick, Shimadzu UV 2101 PC spectrophotometer
Description: This 2,4,6-tris[(3′-benzotriazol-2-yl-2′-hydroxy-5′-methyl)phenylamino]-s-triazine was screened at 50 μm through a screen of stainless steel-gauze stainless steel assembly. Next, it was dispersed in white petroleum jelly sold under the trade name “Codex 236” by the company Sarega at the melting point of the petroleum jelly and in a proportion of 5 g of screened 2,4,6-tris[(3′-benzotriazol-2-yl-2′-hydroxy-5′-methyl) phenylamino]-s-triazine per 100 g of petroleum jelly. This mixture was then treated with ultrasound in order to ensure homogeneous dispersion. A film 10 Am thick was analysed.
The solid UV absorption spectrum was obtained using a Shimadzu UV 2101 PC spectrophotometer and is represented in FIG. 1.
The solid UV absorption spectrum of this 2,4,6-tris[(3′-benzotriazol-2-yl-2′-hydroxy-5′-tert-octyl)phenylamino]-s-triazine was measured according to the same procedure as in Example 1. This spectrum is represented in FIG. 2.

[2] = UV absorption in CHCl3; assay type: physicochemical

Row | SMILES | solid UV absorption spectrum: range absorbed [1] | melting point [°C] | UV λmax ([2]; CHCl3) [nm] | UV εmax ([2]; CHCl3, at λmax)
1 | Cc1cc(Nc2nc(Nc3cc(C)cc(-n4nc5ccccc5n4)c3O)nc(Nc3cc(C)cc(-n4nc5ccccc5n4)c3O)n2)c(O)c(-n2nc3ccccc3n2)c1 [Example 1, 2,4,6-tris[(3′-benzotriazol-2-yl-2′-hydroxy-5′-methyl)phenylamino]-s-triazine] | absorbs throughout the UV radiation range (280-400 nm) | > 270 | – | –
2 | CC(C)(C)CC(C)(C)c1cc(Nc2nc(Nc3cc(C(C)(C)CC(C)(C)C)cc(-n4nc5ccccc5n4)c3O)nc(Nc3cc(C(C)(C)CC(C)(C)C)cc(-n4nc5ccccc5n4)c3O)n2)c(O)c(-n2nc3ccccc3n2)c1 [Example 2, 2,4,6-tris[(3′-benzotriazol-2-yl-2′-hydroxy-5′-tert-octyl)phenylaminol]-s-triazine] | absorbs throughout the UV radiation range (280-400 nm) | – | 326 | 68,600
